According to patent US20100113368A1, “CHOLESTEROL LOWERING PROTEIN HYDROLYSATES” (priority 2007, published 2010):
Marks after values point to notes of the source that are not given here.

Key:
[1] = tested on: hypercholesterolemic rat model; assay: Hypocholesterolemic effects of R-P-P-R, K-P-P, L-arginine and Ezetimib in Fisher F344 rats (Example 6); assay type: in vivo; details: for Effect on non-HDL cholesterol (VLDL-cholesterol+LDL-cholesterol) as compared to the control group / Effect on plasma HDL-cholesterol as compared to the control group / Effect on plasma total cholesterol as compared to the control group: in words, 8 days orally, 100 mg/kg BW (Ezetimib 1 mg/kg BW); for HDL cholesterol (plasma) / Total cholesterol (plasma) / non HDL cholesterol (plasma): male F344 rats on atherogenic diet, orally for 8 days, peptides and L-arginine 100 mg/kg BW, Ezetimib 1 mg/kg BW, mean ± SD; for non HDL cholesterol (plasma): difference between total and HDL cholesterol
Experimental: In this experiment the effects of the chemically synthesized peptides R-P-P-R and K-P-P, the free amino acid L-arginine and the potent and selective cholesterol absorption inhibitor Ezetimib (Ezetrol, MSD Germany) were tested on plasma cholesterol levels in the hypercholesterolemic rat model.
Male Fisher rats (F344) from Charles River (Sulzfeld, Germany), weighing 65-96 g were housed individually with free access to water and feed, with an alternating 12-hour light-dark cycle. The animals were fed a rodent atherogenic diet high in cholesterol and fat similar to the procedure described in Example 5. After 2 weeks of adaptation to the diet the rats were randomized according to body weight into five experimental groups of 10 animals each. The five groups were treated orally every morning for 8 days with either water (control group) or with R-P-P-R, K-P-P and L-arginine at a dose of 100 mg/kg body weight (BW) or with Ezetimib at a dose of 1 mg/kg BW while continuing the aetherogenic diet. There was no difference in feed consumption over the whole experiment. The day before the last administration, all animals were dosed orally in the evening and deprived of food for the last 6 hours but allowed free access to water. At day 8 the fasted rats were treated again orally in the morning and after two hours the animals were sacrificed by withdrawing blood from the vena Cava under Isoflurane anesthesia. Blood was collected into tubes containing EDTA as an anticoagulant. Plasma was prepared from the blood by immediate centrifugation at 1600 g for 10 minutes at 4° C. Assays of plasma cholesterol and HDL-cholesterol (precipitation method) were determined enzymatically on a Hitachi 912 automatic analyzer (Roche Diagnostica, Switzerland). Non-HDL cholesterol was calculated by difference between total cholesterol and HDL cholesterol. All data are expressed as means±standard deviation (SD) for animals in each diet group, with n being the number of rats.

[2] = tested on: hypercholesterolemic rat model; assay: Hypocholesterolemic effects of peptide R-P-P-R-S in Fisher F344 rats (Example 5); assay type: in vivo; details: male F344 rats on atherogenic diet, 100 mg/kg BW orally for 7 days, mean ± SD
Experimental: In this experiment the effects of the chemically synthesized […] R-P-P-R-S was tested on plasma cholesterol levels in the hypercholesterolemic rat model.
In short male Fisher rats (F344) from Charles River (Sulzfeld, Germany), weighing 65-96 g were housed individually with free access to water and feed, with an alternating 12-hour light-dark cycle. The animals were fed a rodent atherogenic diet high in cholesterol and fat for the 2 weeks preceding the treatment. The macro-nutrient composition of the diet was as follows (g/100 g anhydrous mix): protein 20.8; fiber 4.2; fat 15; carbohydrate 48. The diet also contained 1.25 wt % cholesterol, 0.5 wt % sodium cholate and a standard vitamin and mineral mix, prepared according to rat nutritional requirements. The main fats consisted of cacoa butter (7.5 wt %) and soja oil (4.35 wt %). After 2 weeks of adaptation to the diet the rats were randomized according to body weight into two experimental groups of 10 animals. The two groups were treated orally every morning for 7 days with either water (control group) or peptide R-P-P-R-S, at a dose of 100 mg/kg body weight (BW) while continuing the aetherogenic diet. There was no difference in feed consumption over the whole experiment. The day before the last administration, all animals were dosed orally in the evening and deprived of food overnight (14 hours) but allowed free access to water. At day 7 the fasted rats were treated again orally in the morning and after two hours the animals were sacrificed by withdrawing blood from the vena Cava under Isoflurane anesthesia. Blood was collected into tubes containing EDTA as an anticoagulant. […] Assays of plasma cholesterol and HDL-cholesterol (precipitation method) were determined enzymatically on a Hitachi 912 automatic analyzer (Roche Diagnostica, Switzerland). Non-HDL cholesterol was calculated by difference between total cholesterol and HDL cholesterol. […] All data are expressed as means±standard deviation (SD) for animals in each diet group, with n being the number of rats. […]

| Compound | Effect on non-HDL cholesterol (VLDL-cholesterol+LDL-cholesterol) as compared to the control group [1] | Effect on plasma HDL-cholesterol as compared to the control group [1] | Effect on plasma total cholesterol as compared to the control group [1] | HDL cholesterol (plasma) [1] [mmol/L] | Total cholesterol (plasma) [1] [mmol/L] | non HDL cholesterol (plasma) [1] [mmol/L] | HDL cholesterol (plasma) ([2]; fasted, 2 h after last dose) | Total cholesterol (plasma) ([2]; fasted, 2 h after last dose) | non HDL cholesterol (plasma) ([2]; difference between total and HDL cholesterol) |
| --- | --- | --- | --- | --- | --- | --- | --- | --- | --- |
| O=C1[C@H](CC[C@H](O)c2ccc(F)cc2)[C@@H](c2ccc(O)cc2)N1c1ccc(F)cc1 [Ezetimib, reference compound] | prominent effects | prominent effects | prominent effects | 0.51 ± 0.06 | 4.70 ± 0.93 | 4.19 ± 0.90 |  |  |  |
| N=C(N)NCCC[C@H](N)C(=O)O [L-arginine, reference compound] | had no effect | had no effect | had no effect | 0.33 ± 0.05 | 7.66 ± 1.08 | 7.32 ± 1.08 |  |  |  |
| K-P-P [KPP] | tended to lowered | significantly increased | tended to lowered | 0.37 ± 0.04 | 6.82 ± 1.42 | 6.45 ± 1.44 |  |  |  |
| R-P-P-R (RPPR) [chemically synthesized peptide Arg-Pro-Pro-Arg] | significantly lowered | tended to increase | significantly lowered | 0.35 ± 0.04 | 5.28 ± 0.81 | 4.94 ± 0.81 |  |  |  |
| R-P-P-R-S (RPPRS) [chemically synthesized peptide Arg-Pro-Pro-Arg-Ser] |  |  |  |  |  |  | 0.36 ± 0.10^b mmol/L | 2.9 ± 0.4^b mmol/L | 2.5 ± 0.5^b mmol/L |
